# Patent US20130065818A1, “Arylamide Compounds And Compositions And Uses Thereof” (POLYMEDIX, priority 2006, published 2013)
# Where “and” joins values, the source holds several entries; their conditions need not be identical. Equal entries are not always repeated. Entries after “also recorded” stand apart in the source; their conditions may differ.
# Key:
# [1] = Draize ocular toxicity scoring, NZW rabbit ocular toxicity model; assay type: in vivo; design: key to MMTS / Score (Draize total): Draize total score of cornea, iris and conjunctivae; maximum 110; III. B. Chemosis / I. A. Cornea opacity / I. B. Area of cornea involved / II. A. Iris / III. A. Conjunctivae redness / III. C. Discharge: scale not given here
# Procedure: The ocular toxicity of several concentrations of Oligomer 2, using the Draize ocular toxicity scoring system, in the NZW rabbit ocular toxicity model was carried out.
# Rabbits were treated in both eyes with (37 μl) topical drops every 30 minutes for 3 hours (7 total doses). One rabbit was treated with Tris-Buffered Saline and served as a negative control. Rabbits were evaluated in a masked fashion for ocular toxicity by an ophthalmologist with specialty training in corneal and external disease. Ocular toxicity was evaluated using the Draize scoring system after treatment on Day 0 and on Day 3 post treatment for any delayed toxicity. (Draize et al., J. Pharmacol. Exp. Ther., 1944, 82, 377-390).
# A brief summary of the Draize scoring system for ocular lesions is provided below
# Total Maximum Score: 110 represents the sum of all scores obtained for the cornea, iris and conjunctivae.
# The ocular toxicity of several formulations of Oligomer 4 with and without farnesol, using the Draize ocular toxicity scoring system, in the NZW rabbit ocular toxicity model was carried out.
# Rabbits were treated in both eyes with (37 μl) topical drops every 30 minutes for 3 hours (7 total doses). One rabbit was treated with Tris-Buffered Saline and served as a negative control. Rabbits were evaluated in a masked fashion for ocular toxicity by an ophthalmologist with specialty training in corneal and external disease 30 minutes after the final dose. Ocular toxicity was evaluated using the Draize scoring system (see above) after treatment on Day 0 and on Day 2 post treatment for any delayed toxicity.
# [2] = test system: fluoroquinolone-resistant, methicillin-resistant Staphylococcus aureus (K950); assay: NZW rabbit keratitis model, corneal colony counts; assay type: in vivo
# Method in brief: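 NZW rabbit corneas, with or without intact epithelia, infected with fluoroquinolone-resistant MRSA; right eyes left untreated. Topical treatments included 1%, 0.5% or 0.25% Oligomer 2 (0.25% ± 0.005% benzalkonium chloride), 0.25% Oligomer 4 ± 200 μM Farnesol, 200 μM Farnesol alone, and 5% vancomycin; read-out corneal colony counts.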
# [3] = 0.25% Oligomer 4 in TBS, Day 0, per eye
# [4] = 0.25% Oligomer 4 in TBS, Day 2, per eye
# [5] = 0.25% in Tris Buffered Saline (TBS), Day 0
# [6] = 0.25% in Tris Buffered Saline (TBS), Day 2
# [7] = 0.5% Oligomer 4 in TBS, Day 0, per eye
# [8] = 0.5% Oligomer 4 in TBS, Day 2, per eye
# [9] = 0.5% in Tris Buffered Saline (TBS), Day 0
# [10] = 0.5% in Tris Buffered Saline (TBS), Day 2
smiles,measurement,setting,value
N=C(N)NCCCCC(=O)Nc1cc(C(F)(F)F)cc(NC(=O)c2cc(C(=O)Nc3cc(C(F)(F)F)cc(NC(=O)CCCCNC(=N)N)c3O[C@@H]3CCNC3)ncn2)c1O[C@@H]1CCNC1 [Oligomer 4],Classification of eye irritation,"[1]; 0.25% Oligomer 4 in TBS, Day 0",Practically Non-Irritating
same,MMTS,"[1]; 0.25% Oligomer 4 in TBS, Day 0",1.5
same,MMTS classification symbol,"[1]; 0.25% Oligomer 4 in TBS, Day 0",PN (0.6-2.5 Practically Non-Irritating)
same,I. A. Cornea opacity,[1]; [3],0
same,I. B. Area of cornea involved,[1]; [3],0
same,"I. Tot (cornea, A × B × 5)",[1]; [3],0
same,II. A. Iris,[1]; [3],0
same,"II. Tot (iris, A × 5)",[1]; [3],0
same,III. A. Conjunctivae redness,[1]; [3],0
same,III. B. Chemosis,[1]; [3],0
same,Classification of eye irritation,"[1]; 0.25% Oligomer 4 in TBS, Day 2",Non-Irritating
same,MMTS,"[1]; 0.25% Oligomer 4 in TBS, Day 2",0.5
same,MMTS classification symbol,"[1]; 0.25% Oligomer 4 in TBS, Day 2",N (0.0-0.5 Non-Irritating)
same,I. A. Cornea opacity,[1]; [4],0
same,I. B. Area of cornea involved,[1]; [4],0
same,"I. Tot (cornea, A × B × 5)",[1]; [4],0
same,II. A. Iris,[1]; [4],0
same,"II. Tot (iris, A × 5)",[1]; [4],0
same,III. A. Conjunctivae redness,[1]; [4],0
same,III. B. Chemosis,[1]; [4],0
same,MMTS,[1]; [5],1.5
same,MMTS classification,[1]; [5],PN (0.6-2.5 Practically Non-Irritating)
same,MMTS,[1]; [6],0.5
same,MMTS classification,[1]; [6],N (0.0-0.5 Non-Irritating)
same,Classification of eye irritation,"[1]; 0.5% Oligomer 4 in TBS, Day 0",Mildly Irritating
same,MMTS,"[1]; 0.5% Oligomer 4 in TBS, Day 0",6.5
same,MMTS classification symbol,"[1]; 0.5% Oligomer 4 in TBS, Day 0",M1 (2.6-15.0 Minimally Irritating)
same,I. A. Cornea opacity,[1]; [7],0
same,I. B. Area of cornea involved,[1]; [7],0
same,"I. Tot (cornea, A × B × 5)",[1]; [7],0
same,II. A. Iris,[1]; [7],0
same,"II. Tot (iris, A × 5)",[1]; [7],0
same,III. C. Discharge,[1]; [7],2 and 1
same,MMTS,"[1]; 0.5% Oligomer 4 in TBS, Day 2",1.0
same,MMTS classification symbol,"[1]; 0.5% Oligomer 4 in TBS, Day 2",N (0.0-0.5 Non-Irritating)
same,I. A. Cornea opacity,[1]; [8],0
same,I. B. Area of cornea involved,[1]; [8],0
same,"I. Tot (cornea, A × B × 5)",[1]; [8],0
same,II. A. Iris,[1]; [8],0
same,"II. Tot (iris, A × 5)",[1]; [8],0
same,III. A. Conjunctivae redness,[1]; [8],0
same,III. B. Chemosis,[1]; [8],0
same,MMTS,[1]; [9],6.5
same,MMTS classification,[1]; [9],M1 (2.6-15.0 Minimally Irritating)
same,MMTS,[1]; [10],1.0
same,MMTS classification,[1]; [10],N (0.0-0.5 Non-Irritating)
same,Dose dependence of ocular toxicity,"[1]; Example 7, 7 topical instillations, every 30 minutes for 3 hours",dose dependent ocular toxicity
same,Effect of addition of 100 μM Farnesol in 1% Propylene Glycol on ocular toxicity,"[1]; rabbit, in vivo",increased the toxicity
same,Effect of addition of Farnesol on penetration and antibacterial efficacy of Oligomer 4,[2]; Ker-4,did nothing to promote penetration; also recorded: a trend toward antagonism
same,Reduction of colony counts compared with the Onset of Therapy Control,"[2]; Ker-4, corneal epithelium removed",effective
same,Effect of addition of Farnesol on penetration of 0.25% Oligomer 4 through the intact corneal epithelium,[2]; in vivo,did not appear aid in the penetration
